Test system: moderate-to-severe chronic spontaneous urticaria (CSU)
Assay: Phase 2 CSU study: urticaria activity score over 7 days (UAS7)
Type: in vivo, human
Parameters: key to UAS7 Median / UAS7 Change from baseline Median / UAS7 change from baseline, Q1 / UAS7 change from baseline, Q3 / UAS7 change from baseline, Max / UAS7 Change from baseline LS Mean (SE): UAS7 points; daily UAS score ranges 0–6 points/day, over 7 days
Source text: The study comprises a 12 week, randomized, double-blind, placebo-controlled, multi-center, dose-ranging efficacy and safety phase, followed by a 40 week open label extension (OLE) phase (see FIG. 1). The study consists of three phases and an optional OLE phase. […] Clinically, CSU is characterized by the spontaneous and recurrent appearance of pruritic hives. The proposed primary endpoints were the UAS7 at Week 12 in EU and EU reference countries and the ISS7 in the US. Regardless of where a participant was from, all assessments were the same. The UAS7 score is a composite score containing both the HSS7 and the ISS7. This allowed a global assessment of the two key components of urticaria: hives and itch. […] The UAS is a validated PRO measure. […] The daily UAS scores range from 0 to 6 point/day. […] Patients were to complete the UAS using the e-diary. […] The following secondary endpoints were to be analyzed using the same approach as for the primary endpoint: • Change from baseline in UAS7 at Week 4 • Change from baseline in UAS7 at Week 12 (for US and US reference countries) • Change from baseline in ISS7 at Week 12 (except US and US reference countries) • Change from baseline in HSS7 at Week 12 The following responder secondary endpoints were to be analyzed using the Cochran-Mantel-Haenszel test adjusted by region: • Proportion of participants with UAS7<6 at Week 12 • Proportion of participants with UAS7=0 at Week 12 Participants who received selected prohibited medications and/or rescue medications were to be considered as non-responders for time points after the medication usage. For other participants, all available data including those collected during the off-treatment period were to be used to determine the responder/non-responder status. Missing data were to be considered as non-responders.

[1] = Week 11, 400 mg TID, Prior Omalizumab Use
[2] = Week 11, 400 mg TID, omalizumab-naive participants
[3] = Week 12, 400 mg BID, ITT population
[4] = Week 12, 400 mg BID, Omalizumab-Naïve
[5] = Week 12, 400 mg BID, Prior Omalizumab Use
[6] = Week 12, 400 mg BID, omalizumab-naive participants
[7] = Week 12, 400 mg QPM, ITT population
[8] = Week 12, 400 mg QPM, Omalizumab-Naïve
[9] = Week 12, 400 mg QPM, Prior Omalizumab Use
[10] = Week 12, 400 mg QPM, omalizumab-naive participants
[11] = Week 12, 400 mg TID, ITT population
[12] = Week 12, 400 mg TID, Omalizumab-Naïve
[13] = Week 12, 400 mg TID, Prior Omalizumab Use
[14] = Week 12, 400 mg TID, omalizumab-naive participants

CC(C)(C=C(C#N)C(=O)N1CCC[C@@H](n2nc(-c3ccc(Oc4ccccc4)cc3F)c3c(N)ncnc32)C1)N1CCN(C2COC2)CC1 [rilzabrutinib, (R)-2-[3-[4-amino-3-(2-fluoro-4-phenoxy-phenyl)pyrazolo[3,4-d]pyrimidin-1-yl]piperidine-1-carbonyl]-4-methyl-4-[4-(oxetan-3-yl)piperazin-1-yl]pent-2-enenitrile]
UAS7 Change from baseline Mean (SD) [1]: −25.94 (15.41)
UAS7 Change from baseline Median [1]: −26.33
UAS7 Mean (SD) [1]: 7.08 (11.77)
UAS7 Median [1]: 1.75
UAS7 Percent change from baseline Mean (SD) [1]: −76.09 (31.89) %
UAS7 Percent change from baseline Median [1]: −92.11%
Non-responder, UAS7 reduction from baseline of 10 points or more [2]: 12 (34.3) n (%)
OR for rilzabrutinib vs. placebo, UAS7 reduction of 10 points or more [2]: 1.839
RRD (%) for rilzabrutinib vs. placebo, UAS7 reduction of 10 points or more [2]: 13.6 %
Responder, UAS7 reduction from baseline of 10 points or more [2]: 23 (65.7) n (%)
Non-responder, UAS7 reduction from baseline of 10 points or more [3]: 23 (56.1) n (%)
OR for rilzabrutinib vs. placebo, UAS7 reduction of 10 points or more [3]: 1.041
RRD (%) for rilzabrutinib vs. placebo, UAS7 reduction of 10 points or more [3]: 1.0 %
Responder, UAS7 reduction from baseline of 10 points or more [3]: 18 (43.9) n (%)
UAS7 Change from baseline Mean (SD) [4]: −14.49 (12.08)
UAS7 Change from baseline Median [4]: −12.80
UAS7 Mean (SD) [4]: 15.61 (13.91)
UAS7 Median [4]: 14.00
UAS7 Percent change from baseline Mean (SD) [4]: −50.20 (37.89) %
UAS7 Percent change from baseline Median [4]: −47.76%
UAS7 Change from baseline Mean (SD) [5]: −26.00 (18.38)
UAS7 Change from baseline Median [5]: −31.00
UAS7 Mean (SD) [5]: 8.75 (17.50)
UAS7 Median [5]: 0.00
UAS7 Percent change from baseline Mean (SD) [5]: −75.00 (50.00) %
UAS7 Percent change from baseline Median [5]: −100.00%
Non-responder, UAS7 reduction from baseline of 10 points or more [6]: 20 (57.1) n (%)
OR for rilzabrutinib vs. placebo, UAS7 reduction of 10 points or more [6]: 1.069
RRD (%) for rilzabrutinib vs. placebo, UAS7 reduction of 10 points or more [6]: 1.7 %
Responder, UAS7 reduction from baseline of 10 points or more [6]: 15 (42.9) n (%)
Non-responder, UAS7 reduction from baseline of 10 points or more [7]: 24 (63.2) n (%)
OR for rilzabrutinib vs. placebo, UAS7 reduction of 10 points or more [7]: 0.841
RRD (%) for rilzabrutinib vs. placebo, UAS7 reduction of 10 points or more [7]: −4.0 %
Responder, UAS7 reduction from baseline of 10 points or more [7]: 14 (36.8) n (%)
UAS7 Change from baseline Mean (SD) [8]: −10.57 (9.36)
UAS7 Change from baseline Median [8]: −8.70
UAS7 Median [8]: 22.87
UAS7 Percent change from baseline Mean (SD) [8]: −33.23 (28.33) %
UAS7 Percent change from baseline Median [8]: −29.67%
UAS7 Change from baseline Mean (SD) [9]: −25.00 (NC)
UAS7 Change from baseline Median [9]: −25.00
UAS7 Mean (SD) [9]: 16.00 (NC)
UAS7 Median [9]: 16.00
UAS7 Percent change from baseline Mean (SD) [9]: −60.98 (NC) %
UAS7 Percent change from baseline Median [9]: −60.98%
Non-responder, UAS7 reduction from baseline of 10 points or more [10]: 24 (64.9) n (%)
OR for rilzabrutinib vs. placebo, UAS7 reduction of 10 points or more [10]: 0.780
RRD (%) for rilzabrutinib vs. placebo, UAS7 reduction of 10 points or more [10]: −5.8 %
Responder, UAS7 reduction from baseline of 10 points or more [10]: 13 (35.1) n (%)
Non-responder, UAS7 reduction from baseline of 10 points or more [11]: 18 (43.9) n (%)
OR for rilzabrutinib vs. placebo, UAS7 reduction of 10 points or more [11]: 1.638
RRD (%) for rilzabrutinib vs. placebo, UAS7 reduction of 10 points or more [11]: 11.7 %
Responder, UAS7 reduction from baseline of 10 points or more [11]: 23 (56.1) n (%)
UAS7 Change from baseline Mean (SD) [12]: −19.04 (11.40)
UAS7 Change from baseline Median [12]: −18.92
UAS7 Mean (SD) [12]: 11.00 (9.90)
UAS7 Percent change from baseline Mean (SD) [12]: −62.32 (31.89) %
UAS7 Percent change from baseline Median [12]: −60.00%
UAS7 Change from baseline Mean (SD) [13]: −27.40 (16.76)
UAS7 Change from baseline Median [13]: −34.00
UAS7 Mean (SD) [13]: 7.80 (13.01)
UAS7 Median [13]: 0.00
UAS7 Percent change from baseline Mean (SD) [13]: −74.46 (35.38) %
UAS7 Percent change from baseline Median [13]: −100.00%
Non-responder, UAS7 reduction from baseline of 10 points or more [14]: 15 (42.9) n (%)
OR for rilzabrutinib vs. placebo, UAS7 reduction of 10 points or more [14]: 1.805
Responder, UAS7 reduction from baseline of 10 points or more [14]: 20 (57.1) n (%)
